The values below come from ChEMBL document CHEMBL1136899, “Synthesis and therapeutic evaluation of pyridyl based novel mTOR inhibitors” (Bioorg Med Chem Lett, 2009).

The source made the active and inactive calls. No cut-off for these calls is given here.

Data set [1] concerns Mus musculus. Description: Decrease in dextran sulfate sodium-induced edema in mouse at 150 mg/kg, ip administered daily for 10 days by histological analysis. The data set is classed as functional, organism-based. On the set-up: dose 150 mg/kg.
In data set [2] the test system is Mus musculus. Description: Blockade of dextran sulfate sodium-induced mTOR activation in mouse at 150 mg/kg, ip administered daily for 10 days by Western blot analysis. The data set is classed as functional, organism-based. On the set-up: dose 150 mg/kg. In general terms: Immunoblotting shows a protein as a band on a membrane.
Data set [3] deals with Mus musculus. Description: Inhibition of dextran sulfate sodium-induced weight loss in mouse at 150 mg/kg, ip administered daily for 10 days by macroscopic analysis. The data set is classed as functional, organism-based. On the set-up: dose 150 mg/kg.
For data set [4], the system named is Mus musculus. Description: Suppression of dextran sulfate sodium-induced colitis in mouse assessed as improved rectal bleeding index at 150 mg/kg, ip administered daily for 10 days by macroscopic analysis. The data set is classed as functional, organism-based. On the set-up: dose 150 mg/kg.
Data set [5] relates to Mus musculus. Description: Reversal of dextran sulfate sodium-induced shortening of colon in mouse at 150 mg/kg, ip administered daily for 10 days by macroscopic analysis. It is filed as functional, organism-based. On the set-up: dose 150 mg/kg.
Data set [6] relates to Mus musculus. Description: Suppression of dextran sulfate sodium-induced colitis in mouse assessed as inhibition of leukocyte infiltration in colonic mucosa at 150 mg/kg, ip administered daily for 10 days by histological analysis. It is filed as functional, organism-based. The arrangement: dose 150 mg/kg.
Data set [7] relates to Mus musculus. Description: Protection against dextran sulfate sodium-induced crypt damage in mouse at 150 mg/kg, ip administered daily for 10 days by histological analysis. The data set is classed as functional, organism-based. On the set-up: dose 150 mg/kg.
Data set [8] in a line: Cmax in mouse plasma at 15 mg/kg, ip. It is filed as ADME, organism-based. On the set-up: dose 15 mg/kg, route intraperitoneal.
Data set [9] relates to Plasma. Description: Stability in human plasma. It is filed as ADME, cell-free.
The subject of another data set is PBMC. Description: Inhibition of concanavalin A-induced IFN-gamma production in human PBMC cells. It is filed as functional, cell-based.
Data set [10] deals with Plasma. Description: Stability in mouse plasma. The data set is classed as ADME, cell-free.
Data set [11] in a line: Cmax in mouse plasma at 100 mg/kg, ip. The arrangement: dose 100 mg/kg, route intraperitoneal. The data set is classed as ADME, organism-based.
In data set [12] the test system is Mus musculus. Description: Suppression of dextran sulfate sodium-induced colitis in mouse assessed as decrease in disease activity index at 150 mg/kg, ip administered daily for 10 days by macroscopic analysis. The data set is classed as functional, organism-based. The arrangement: dose 150 mg/kg.
Data set [13] has as its system Plasma. Description: Stability in rat plasma. It is filed as ADME, cell-free.

In the case of `CC(Cl)C(=O)Nc1ccc(C#N)nc1` (centres undefined), the result in the data set with Mus musculus [1], in the data set on Mus musculus [2], in the data set on Mus musculus [4], with Mus musculus [5], with Mus musculus [7] and with Mus musculus [12] was Active. In addition, the inhibition entry in the data set on Mus musculus [3] and with Mus musculus [6] was “Active” in each case. In addition, the Cmax in [8] was 30 µM; in [11], 180 µM. Further, the Stability entry in the data set on Plasma [9], with Plasma [10] and in the data set on Plasma [13] was “Stable” throughout. In the data set on PBMC, the Activity result is “Dose-dependent effect”.

Broadly, the Cmax is the maximum level reached in the sampled fluid or tissue.
